# Measured values reported in PubChem BioAssay (NCI).
# Several values for one entry are separate records, joined by “and”; a condition that tells them apart may be missing. Equal values may be shown once.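 48-hour exposure; five concentrations; linearly interpolated endpoints. GI50: concentration for 50% inhibition of growth. TGI is the concentration that stops growth completely.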
# Legend:
# Assay in all cases: NCI-60 cell line screen, 48 h
# ACHN renal = tested on: ACHN renal
# UACC-257 melanoma = tested on: UACC-257 melanoma
# CAKI-1 renal = tested on: CAKI-1 renal
# OVCAR-8 ovarian = tested on: OVCAR-8 ovarian
# NCI-H23 lung = tested on: NCI-H23 lung
# MOLT-4 leukemia = tested on: MOLT-4 leukemia
# EKVX NSCLC = tested on: EKVX NSCLC
# HS 578T breast = tested on: HS 578T breast
# BT-549 breast = tested on: BT-549 breast
# K-562 leukemia = tested on: K-562 leukemia
SMILES,GI50 (ACHN renal),TGI (ACHN renal),GI50 (UACC-257 melanoma),TGI (UACC-257 melanoma),GI50 (CAKI-1 renal),TGI (CAKI-1 renal),GI50 (OVCAR-8 ovarian),TGI (OVCAR-8 ovarian),GI50 (NCI-H23 lung),TGI (NCI-H23 lung),GI50 (MOLT-4 leukemia),TGI (MOLT-4 leukemia),GI50 (EKVX NSCLC),TGI (EKVX NSCLC),GI50 (HS 578T breast),TGI (HS 578T breast),GI50 (BT-549 breast),TGI (BT-549 breast),GI50 (K-562 leukemia) [µM],TGI (K-562 leukemia)
CN(C)CCCN1c2ccccc2CCc2ccc(Cl)cc21,3.81 µM,13.5 µM,1.84 µM,3.41 µM,3.88 µM,16.8 µM,8.23 µM,23.6 µM,7.51 µM,21.9 µM,3.07 µM,11.1 µM,10.9 µM,26.4 µM,10.6 µM,77.1 µM,10.4 µM,22.2 µM,,
Cc1ccc(C2=NOC3=c4ccccc4=CSC3=C2c2ccc([N+](=O)[O-])cc2)cc1,13.8 µM,61.4 µM,44.4 µM,> 100 µM,16.8 µM,46.8 µM,6.22 µM,40.5 µM,17.8 µM,53.7 µM,> 100 µM,> 100 µM,24.4 µM,93.6 µM,22.9 µM,94.9 µM,19.1 µM,46.2 µM,36.1,> 100 µM
O=S(=O)(NCCNC/C=C/c1ccc(Br)cc1)c1cccc2cnccc12,10.3 µM and 12.5 µM,22.8 µM and 26.2 µM,7.83 µM and 14.3 µM,20.8 µM and 27.5 µM,4.15 µM and 9.99 µM,18 µM and 27 µM,13 µM and 15.6 µM,28.5 µM and 32.3 µM,11.3 µM and 13.1 µM,25.8 µM and 27.5 µM,> 20.4 µM and 7.23 µM,> 45 µM and 27.7 µM,5.25 µM and 6.38 µM,22.9 µM and 20.5 µM,4.62 µM and 12 µM,42 µM and 51.9 µM,3.09 µM and 7.89 µM,12.7 µM and 21.6 µM,6.63,> 36.7 µM and 27.3 µM
CC(C)(C)c1ccc(OCCCCCCN2CCNCC2)cc1,5.01 µM,17.5 µM,10.5 µM,22.9 µM,4.72 µM,17 µM,14.6 µM,33.5 µM,7.59 µM,23 µM,1.82 µM,5.07 µM,10.2 µM,24.2 µM,6.15 µM,25.1 µM,10.5 µM,27.1 µM,1.75,4.48 µM
CC(CN1CCN(CCOCCO)CC1)CN1c2ccccc2Sc2ccc(Cl)cc21 (centres undefined),3.46 µM,12.6 µM,1.49 µM,3.11 µM,4.37 µM,17.1 µM,4.99 µM,18.9 µM,10.8 µM,24.2 µM,2.49 µM,6.54 µM,,,3.44 µM,20.1 µM,2.45 µM,6.67 µM,1.96,4.18 µM
COc1ccc(-c2cc(-c3ccccc3)nc(SCCCC(=O)NO)n2)cc1,0.356 µM,1.46 µM,1.6 µM,8.34 µM,0.335 µM,1.45 µM,0.389 µM,19.8 µM,1.51 µM,4.75 µM,0.758 µM,10.9 µM,1.66 µM,8.07 µM,1.66 µM,9.27 µM,2.76 µM,13.1 µM,0.762,18 µM
O[C@H]1CO[C@H]2[C@@H]1OC[C@@H]2Oc1ccc(Nc2ccnc(Nc3ccc(O[C@H]4CO[C@H]5[C@@H]4OC[C@@H]5O)c(Cl)c3)n2)cc1Cl,2.8 µM,10.6 µM,2.7 µM,10.2 µM,1.79 µM,10.2 µM,1.38 µM,11.3 µM,1.49 µM,4.6 µM,1.72 µM,6.04 µM,2.4 µM,8.86 µM,1.29 µM,4.8 µM,2.2 µM,8.14 µM,1.27,18.4 µM
CCN(C(=O)N1CCN(c2cc3c(cc2F)c(=O)c(C(=O)O)cn3C2CC2)CC1)c1nc(-c2ccc(C)cc2)cs1,0.976 µM,> 100 µM,,,1.4 µM,> 100 µM,1.41 µM,> 100 µM,0.399 µM,24.6 µM,0.469 µM,> 100 µM,1.52 µM,> 100 µM,0.46 µM,4.28 µM,0.336 µM,1.56 µM,0.431,> 100 µM
CC(=O)NC1=C(OS(=O)(=O)c2ccc(C)cc2)CN(C)C1=O,,12.3 µM,,11.8 µM,,14 µM,,20.3 µM,,15.3 µM,,17.9 µM,,14.2 µM,,> 42.2 µM,,12 µM,,28.3 µM
Cc1ccc(C(=O)Nc2ccc(CN3CCN(C)CC3)c(C(F)(F)F)c2)cc1C#Cc1cnc2cccnn12,0.191 µM and 0.322 µM,1.09 µM and 3.24 µM,0.536 µM and 1.56 µM,2.04 µM and 4.39 µM,0.274 µM and 0.388 µM,1.09 µM and 1.82 µM,0.367 µM and 1.08 µM,1.46 µM and 3.75 µM,0.964 µM,4.15 µM,0.35 µM and 0.703 µM,2.02 µM and 4.45 µM,0.635 µM and 1.79 µM,2.27 µM and 5.14 µM,0.364 µM and 0.544 µM,2.52 µM,1.15 µM and 2.57 µM,2.45 µM and 5.19 µM,,
Cn1c2c(cc(S(=O)(=O)c3ccccc3)c1=O)CCc1c-2cnn1-c1ccc(Cl)cc1,1.98 µM,3.88 µM,,,4.36 µM,> 100 µM,2.73 µM,6.22 µM,4.65 µM,> 100 µM,> 100 µM,> 100 µM,3.62 µM,31 µM,2.72 µM,7.61 µM,3.03 µM,7.82 µM,> 100,> 100 µM
COc1cccc(NC(=O)c2sc3nc4c(cc3c2N)CN(Cc2ccccc2)CC4)c1,3.46 µM,64.5 µM,6.52 µM,> 100 µM,11.7 µM,> 100 µM,4.45 µM,85.2 µM,7.18 µM,49.2 µM,21.9 µM,> 100 µM,,,2.14 µM,23 µM,2.83 µM,26.2 µM,0.53,> 100 µM
C/C(=N\Nc1ccc2ccccc2n1)c1ccccn1,< 0.0389 µM,1.32 µM,0.0579 µM,0.326 µM,,0.59 µM,< 0.0492 µM,12.8 µM,0.156 µM,13.6 µM,< 0.0394 µM,0.404 µM,,,1.94 µM,30.5 µM,0.256 µM,16.6 µM,,1.68 µM
